The structures appear in SMILES notation. pIC50: −log10 of the molar value.

The assay addresses T1, Tyrosine-protein phosphatase non-receptor type 22 (Homo sapiens, UniProt Q9Y2R2).
T1 sequence (Q9Y2R2 whole entry): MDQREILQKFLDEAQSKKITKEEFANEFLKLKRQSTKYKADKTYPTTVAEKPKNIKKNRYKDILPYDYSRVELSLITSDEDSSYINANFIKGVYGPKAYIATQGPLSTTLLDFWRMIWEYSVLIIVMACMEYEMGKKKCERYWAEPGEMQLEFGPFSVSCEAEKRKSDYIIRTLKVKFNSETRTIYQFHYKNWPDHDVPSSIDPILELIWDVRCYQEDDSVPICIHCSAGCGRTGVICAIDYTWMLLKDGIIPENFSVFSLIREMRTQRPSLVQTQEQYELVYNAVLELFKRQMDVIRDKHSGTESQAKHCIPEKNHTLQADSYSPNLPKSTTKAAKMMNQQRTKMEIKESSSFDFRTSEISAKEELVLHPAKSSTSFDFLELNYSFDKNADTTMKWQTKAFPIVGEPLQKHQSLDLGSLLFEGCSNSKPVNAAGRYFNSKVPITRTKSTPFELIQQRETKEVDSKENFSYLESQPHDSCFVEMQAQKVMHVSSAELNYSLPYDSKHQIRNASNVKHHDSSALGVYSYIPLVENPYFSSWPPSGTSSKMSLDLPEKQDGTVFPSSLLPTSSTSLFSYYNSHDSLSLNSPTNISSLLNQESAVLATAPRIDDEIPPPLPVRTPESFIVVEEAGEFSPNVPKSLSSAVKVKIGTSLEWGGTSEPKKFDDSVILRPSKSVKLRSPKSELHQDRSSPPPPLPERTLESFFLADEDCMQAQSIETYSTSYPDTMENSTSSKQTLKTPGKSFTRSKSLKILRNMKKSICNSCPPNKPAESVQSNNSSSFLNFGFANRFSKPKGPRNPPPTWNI
The assay is described as follows: LYP phosphatase inhibitors, dose response, biochemical, fluorescence intensity, uHTS hits, set 2 (AID 435024).
The term pIC50 denotes the IC50 on a negative log10 scale, so that one unit is a factor of ten. Low readings indicate a high IC50, high ones a low IC50. Take `N=C(NN=Cc1ccc2c(c1)OCO2)Sc1cc(O)n(-c2ccc(C(=O)O)cc2)c1O` [4-(3-{[[(2E)-2-(1,3-benzodioxol-5-ylmethylene)hydrazino](imino)methyl]thio}-2,5-dioxopyrrolidin-1-yl)benzoic acid]: the negative logarithm of the IC50 (pIC50) is 5.07.

As to `Cc1ccc(NN=C2C(=O)N(CN3CCOCC3)c3ccccc32)cc1` [(3Z)-3-[(4-methylphenyl)hydrazinylidene]-1-(4-morpholinylmethyl)-2-indolone], the pIC50 is below 4.10.

In turn, `O=C1C([N+](=O)[O-])=CC(Br)=CC1/C=N/n1cnnc1` (stereo not given) [MLS000714804] gave a pIC50 below 4.10.

`COC1=CC=CC(/C=N/NC(=O)c2cc3cc([N+](=O)[O-])ccc3s2)C1=O` (stereo not given) [SMR000237814]: the negative-log IC50 (pIC50) is 4.88.

The molecule `CCOC(=O)NC(=O)C(C=Nc1ccc(C)cc1)C(=O)NC(=O)OCC` [ethyl 2-{[(ethoxycarbonyl)amino]carbonyl}-3-(4-toluidino)acryloylcarbamate] showed a pIC50 below 4.10.

For the origin of these results see BindingDB's records for doi:10.7270/Q2CR5RTC (Burnham Center For Chemical Genomics, 2010).
